Source: ChEMBL document CHEMBL1201862, “PubChem BioAssay data set” (2004)
The source made the active and inactive calls.

Columns and labels:
[1] = target: T1, Streptokinase A (Streptococcus pyogenes serotype M1, UniProt P10520); assay: S. pyogenes streptokinase expression inhibitors, potency, dose response, plasminogen activation absorbance, OD405 (AID 1914); assay type: functional, Streptococcus pyogenes M1 GAS;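 note: secreted streptokinase activity via plasminogen activation per viability signal from cell pellet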
T1 sequence (P10520 whole entry): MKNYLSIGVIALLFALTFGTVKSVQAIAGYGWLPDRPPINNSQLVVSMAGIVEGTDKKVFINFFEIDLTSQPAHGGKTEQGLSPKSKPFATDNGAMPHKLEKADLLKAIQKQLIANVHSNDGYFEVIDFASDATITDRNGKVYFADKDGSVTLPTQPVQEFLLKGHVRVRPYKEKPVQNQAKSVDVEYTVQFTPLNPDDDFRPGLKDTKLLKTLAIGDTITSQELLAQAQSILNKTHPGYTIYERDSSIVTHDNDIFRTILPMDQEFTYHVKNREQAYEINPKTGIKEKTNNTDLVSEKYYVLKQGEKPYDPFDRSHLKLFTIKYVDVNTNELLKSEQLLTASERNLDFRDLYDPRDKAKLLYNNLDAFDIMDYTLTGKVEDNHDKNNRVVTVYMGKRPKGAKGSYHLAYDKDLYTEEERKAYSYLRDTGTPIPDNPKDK

[2] = system: Streptococcus; assay: Group A Streptococcus viability loss, dose response, counter-screen for streptokinase expression inhibitor project, luminescence, BacTiterGlo (AID 1915); assay type: functional, organism-based;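 note: potency for reduction of bacterial viability or growth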
[3] = system: Streptococcus sp. 'group A'; assay: growth inhibition of control SK(-) GAS strain, dose response, counter-screen for streptokinase expression inhibitor project, luminescence, kanamycin, BacTiterGlo, confirmation (AID 1900); assay type: functional, organism-based
[4] = Vero cell cytotoxicity, dose response, cytotoxicity control for Vif-APOBEC3G degradation inhibitor project, Vero cells (AID 1117358); assay type: functional; details: Human immunodeficiency virus 1, Vero
[5] = cells
[6] = target: Oxysterols receptor LXR-beta (Homo sapiens, UniProt P55055); assay type: functional, cell-based;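 note: Cell-based luminescence dose-response assay of agonist activity at LXR, run as a confirmatory counterscreen to a daf-12 agonist screen; HEK293 cells with Gal4-LXR fusion and GAL4-driven luciferase reporter; agonist potency from rising luciferase signal of a Gal4-LXR reporter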
[7] = HEK293T cytotoxicity, dose response, cytotoxicity control for miR-122 modulator project, cell-based, inhibitor set, cherry-pick, set 2 (AID 720697); assay type: functional
[8] = P. falciparum late gametocyte killing, dose response, luminescence (AID 1117278); assay type: functional, cell-based;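 note: gametocytes exposed to compound for 24 hours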
[9] = Jurkat T cell cytotoxicity, dose response, cytotoxicity control for P. falciparum gametocyte viability project, luminescence (AID 1117277); assay type: functional, cell-based;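 note: potency reflects loss of cellular ATP meaning fewer viable cells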
[10] = Glucagon-like peptide 1 release potency, NCI-H716 cell line, dose-response, half-maximal inhibitory concentration (AID 1117344); assay type: functional, cell-based
[11] = SNU-C1 cell viability reduction, dose response, CellTiter-Glo luminescence (AID 1117323); assay type: functional, cell-based
[12] = cytotoxicity toward HT-29 cells – cell-based, CellTiter-Glo luminescence, IC50, dose response (AID 1117330); assay type: functional
[13] = HeLa 2N DNA content increase, dose response, cell-based, IC50 (AID 1117349); assay type: functional
[14] = half-maximal inhibitory concentration for glucagon-like peptide-1 release, STC-1 cell line, dose-response (AID 1117345); assay type: functional, cell-based
[15] = target: Photoreceptor-specific nuclear receptor (Homo sapiens, UniProt Q9Y5X4); assay type: functional, cell-based;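 note: CHO-S cells with Gal4-NCOR and VP16-NR2E3 two-hybrid luciferase reporter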
[16] = HCT116 cell viability decrease, GSK3B pretreatment – CellTiter-Glo, IC50, dose response (AID 1117339); assay type: functional; details: HCT-116
[17] = CellTiter-Glo luminescent dose response of DLD-1 viability loss (AID 1117352); assay type: functional
[18] = HeLa 4N DNA content increase, dose response, cell-based, IC50 (AID 1117351); assay type: functional
[19] = cytotoxicity toward HCT116 cells – cell-based, CellTiter-Glo luminescence, IC50, dose response (AID 1117332); assay type: functional; details: HCT-116
[20] = cytotoxicity toward Colo320 cells – cell-based, CellTiter-Glo luminescence, IC50, dose response (AID 1117334); assay type: functional; details: COLO 320
[21] = RKO cell viability reduction, dose response, CellTiter-Glo luminescence (AID 1117322); assay type: functional
[22] = Concentration-dependent survival of SW480 colon cancer line, luminescence detection with CellTiter-Glo, half-maximal inhibitory concentration (AID 1117338); assay type: functional

Oxysterols receptor LXR-beta, sequence (P55055 whole entry, the tested form may be a part): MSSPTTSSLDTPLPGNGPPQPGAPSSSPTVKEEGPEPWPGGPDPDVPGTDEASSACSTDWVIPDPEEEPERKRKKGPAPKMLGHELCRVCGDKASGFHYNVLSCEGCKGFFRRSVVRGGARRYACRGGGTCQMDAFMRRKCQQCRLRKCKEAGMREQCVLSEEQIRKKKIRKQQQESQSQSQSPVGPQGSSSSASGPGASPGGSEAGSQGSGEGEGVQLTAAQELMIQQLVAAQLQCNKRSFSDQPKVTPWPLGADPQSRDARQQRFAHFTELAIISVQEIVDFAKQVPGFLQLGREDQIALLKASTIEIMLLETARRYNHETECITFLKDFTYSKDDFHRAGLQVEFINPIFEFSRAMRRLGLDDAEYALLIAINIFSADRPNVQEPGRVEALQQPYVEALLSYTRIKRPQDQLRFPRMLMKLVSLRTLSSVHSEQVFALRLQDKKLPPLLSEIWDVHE
Photoreceptor-specific nuclear receptor, sequence (Q9Y5X4 whole entry, the tested form may be a part): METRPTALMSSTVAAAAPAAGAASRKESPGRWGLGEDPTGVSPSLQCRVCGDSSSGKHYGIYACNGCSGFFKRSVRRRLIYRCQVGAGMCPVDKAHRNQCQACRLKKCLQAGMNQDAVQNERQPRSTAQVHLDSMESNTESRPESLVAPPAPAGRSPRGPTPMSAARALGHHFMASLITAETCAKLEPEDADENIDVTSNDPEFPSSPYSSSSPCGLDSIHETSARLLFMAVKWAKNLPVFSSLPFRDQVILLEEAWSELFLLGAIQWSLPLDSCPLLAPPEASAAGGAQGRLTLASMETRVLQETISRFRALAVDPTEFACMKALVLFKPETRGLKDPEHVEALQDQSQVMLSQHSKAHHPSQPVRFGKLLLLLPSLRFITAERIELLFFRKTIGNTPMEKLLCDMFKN

Q: With O=c1c2c(nc(NCCO)n1CC1CCCCC1)-c1ccccc1CC21CCCC1 as the molecule, how does the EC50 [1] read?
A: The EC50 was 3.48 µM (active).

Q: What about the EC50 [2] of the same molecule?
A: Its EC50 is 19.3 µM (inconclusive).

Q: What about the EC50 [3] of the same molecule?
A: Its EC50 is 2.67 µM (active).

Q: And the CC50 [4]?
A: Its CC50 is > 40 µM (active).

Q: For Cc1nn(-c2ccc(Cl)cc2)c(=O)c2ccccc12, which EC50 [5] is on record?
A: Its EC50 is > 67.5 µM (inactive).

Q: What about the EC50 [6] of the same molecule?
A: The EC50 was > 67.5 µM (inactive).

Q: For COCC(=O)Nc1ccc2c(c1)C(=O)N(C)[C@@H]1CC[C@@H](CC(=O)OC)O[C@@H]1CO2, which AC50 [7] is on record?
A: The AC50 was < 0.195 µM (active).

Q: For O=c1c2ccccc2ncn1CCCCOc1ccc(Br)cc1, which IC50 [8] is on record?
A: Its IC50 is > 109 µM (inactive).

Q: And the IC50 [9]?
A: Its IC50 is > 83.3 µM (inactive).

Q: For CCC(C)(C)C(=O)O[C@H]1C[C@@H](C)C=C2C=C[C@H](C)[C@H](CC[C@@H]3C[C@@H](O)CC(=O)O3)[C@H]21 [SIMVASTATIN], which IC50 [10] is on record?
A: Its IC50 is 21.5 µM (inactive).

Q: What about the IC50 [11] of the same molecule?
A: Its IC50 is > 20 µM (inactive).

Q: What about the IC50 [12] of the same molecule?
A: The IC50 was > 20 µM (inactive).

Q: What about the IC50 [13] of the same molecule?
A: The IC50 was > 10 µM (inactive).

Q: What about the IC50 [14] of the same molecule?
A: Its IC50 is 3.29 µM (active).

Q: And the IC50 [15]?
A: Its IC50 is 1.16 µM (active).

Q: What about the IC50 [16] of the same molecule?
A: The IC50 was 4.73 µM (active).

Q: What about the IC50 [17] of the same molecule?
A: Its IC50 is > 20 µM (inactive).

Q: And the IC50 [18]?
A: The IC50 was > 10 µM (inactive).

Q: What about the IC50 [19] of the same molecule?
A: The IC50 was > 20 µM (inactive).

Q: What about the IC50 [20] of the same molecule?
A: Its IC50 is 4.94 µM (active).

Q: What about the IC50 [21] of the same molecule?
A: Its IC50 is > 20 µM (inactive).

Q: Which IC50 [8] does the source give for O=C(Nc1cccc(C(=O)N2CCOCC2)c1)c1ccccc1 here?
A: Its IC50 is > 109 µM (inactive).

Q: And the IC50 [9]?
A: The IC50 was > 83.3 µM (inactive).

Q: For [H]/C=C\c1c(C)c2cc3nc(cc4[nH]c(cc5nc(cc1[nH]2)C(C)=C5CCC(=O)O)c(CCC(=O)OC)c4C)[C@@]1(C)C3=CC=C(C(=O)OC)[C@@H]1C(=O)OC, which IC50 [11] is on record?
A: The IC50 was 5.85 µM (inactive).

Q: What about the IC50 [12] of the same molecule?
A: The IC50 was 3.94 µM (active).

Q: What about the IC50 [22] of the same molecule?
A: Its IC50 is > 6.67 µM (inactive).

Q: What about the IC50 [16] of the same molecule?
A: The IC50 was 4.26 µM (active).

Q: What about the IC50 [19] of the same molecule?
A: Its IC50 is 5.65 µM (inactive).

Q: What about the IC50 [20] of the same molecule?
A: The IC50 was 9.62 µM (inactive).

Q: And the IC50 [21]?
A: Its IC50 is 3.53 µM (active).
